Laboratory results published in patent publication US5057522A, “Anti-hypersensitive N2-tetrazole-β-glucuronide analog” (Merck & Co., Inc., priority 1990, dated 1991).

Molecular target: T1, Angiotensin II (A II) receptor (Oryctolagus cuniculus, UniProt P34976)
T1 construct: membrane preparation derived from rabbit aortae; tissue Pel-Freeze Biologicals; host or cells: rabbit aorta membrane preparation
T1 sequence (P34976 1-359): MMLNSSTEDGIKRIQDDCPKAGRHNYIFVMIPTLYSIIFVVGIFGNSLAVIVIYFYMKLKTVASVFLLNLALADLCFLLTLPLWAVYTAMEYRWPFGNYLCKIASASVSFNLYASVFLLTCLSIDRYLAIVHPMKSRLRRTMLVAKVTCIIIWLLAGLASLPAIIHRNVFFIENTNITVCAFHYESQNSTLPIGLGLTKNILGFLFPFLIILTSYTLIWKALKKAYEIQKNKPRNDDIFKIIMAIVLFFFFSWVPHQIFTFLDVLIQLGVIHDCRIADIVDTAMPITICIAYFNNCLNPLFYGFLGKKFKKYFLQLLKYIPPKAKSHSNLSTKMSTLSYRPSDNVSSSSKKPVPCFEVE
Test: Receptor binding assay using rabbit aortae membrane preparation (displacement of 125I-Sar1 Ile8-angiotensin II; "IC50" assay)
Procedure: This assay is also referred to herein as the "IC50 " assay.
RECEPTOR BINDING ASSAY USING RABBIT AORTAE MEMBRANE PREPARATION
Three frozen rabbit aortae (obtained from Pel-Freeze Biologicals) were suspended in 5 mM Tris-0.25M Sucrose, pH 7.4 buffer (50 ml) homogenized, and then centrifuged. The mixture was filtered through a cheesecloth and the supernatant was centrifuged for 30 minutes at 20,000 rpm at 4° C. The pellet thus obtained was resuspended in 30 ml of 50 mM Tris-5 mM MgCl2 buffer containing 0.2% Bovine Serum Albumin and 0.2 mg/ml Bacitration and the suspension was used for 100 assay tubes. Samples tested for screening were done in duplicates. To the membrane preparation (0.25 ml) there was added ^125 I-Sar^1 Ile^8 -angiotensin II [obtained from New England Nuclear] (10 ul; 20,000 cpm) with or without the test sample and the mixture was incubated at 37° C. for 90 minutes. The mixture was then diluted with ice-cold 50 mM Tris-0.9% NaCl, pH 7.4 (4 ml) and filtered through a glass fiber filter (GF/B Whatman 2.4" diameter). The filter was soaked in scintillation cocktail (10 ml) and counted for radioactivity using Packard 2660 Tricarb liquid scintillation counter. […]

A II antagonist activity by the IC50 assay: exhibits A II antagonist activity
IC50 (37° C., 90 minutes, read-out: inhibitory concentration (IC50) giving 50% displacement of the total specifically bound 125I-Sar1 Ile8-angiotensin II): < 50 µM
SMILES: CCc1nc2c(C)cc(C)nc2n1Cc1ccc(-c2ccccc2-c2nnn([C@@H]3O[C@H](C(=O)O)[C@@H](O)[C@H](O)[C@H]3O)n2)cc1 [compound (I)]
